These results are taken from patent EP4483954A1 (Masarykova Univerzita, priority 2023, dated 2025).

What all share (format): biochemical
One test deals with T1, CLK2 (h) (Homo sapiens, UniProt P49760).
T1 construct: purchased Eurofins (KinaseProfiler)
The test is described as follows: radiometric kinase assay (KinaseProfiler, Eurofins), CLK2. The note with it: in vitro radiometric kinase assay, tested at 1 nM to 10 000 nM, no pre-incubation; read-out: inhibitory activities (IC50 values) CLK2. Here is the method: (§1) The compounds were profiled in the radiometric assays (KinaseProfiler, Eurofins).
(§2) Briefly, kinases were diluted in the buffer shown below prior to addition to the reaction mix: • CDKL3, TAF1L: 20 mM Tris/HCl pH 8.5, 0.2 mM EDTA, 0.1% β-mercaptoethanol, 0.01% Brij-35, 5% glycerol, 1 mg/ml BSA; • Haspin: 15 mM MOPS, 0.75 mM EDTA, 0.0075% Brij-35, 3.75% Glycerol, 150 mM NaCl, 0.1% β-mercaptoethanol, 1 mg/mLBSA; • CDKL4, CLK2, PIM1, TRB2: […], 1 mM EDTA, 0.01% Brij-35, 5% Glycerol, 0.1% β-mercaptoethanol, 1 mg/mL BSA.
(§3) All compounds were prepared to 50x final assay concentration in 100% DMSO. This working stock of the compound was added to the assay well as the first component in the reaction, followed by the remaining components as detailed in the general assay protocols below. There was no pre-incubation step between the compound and the kinase prior to initiation of the reaction.
CLK2 (h) was incubated with 8 mM MOPS pH 7.0, 0.2 mM EDTA, 20 µM […](p)EDEEE (SEQ ID NO. 2), 10 mM magnesium acetate and γ-^33P-ATP (specific activity and concentration as required). The reaction was initiated by the addition of the Mg/ATP mix. After incubation for 40 minutes at room temperature, the reaction was stopped by the addition of phosphoric acid to a concentration of 0.5%. An aliquot of the reaction was then spotted onto a filter and washed four times for 4 minutes in 0.425% phosphoric acid and once in methanol prior to drying and scintillation counting.
(§4) Kinase activity data were expressed as the percent remaining kinase activity in tested samples compared to the vehicle (DMSO) reactions. The compounds were tested at the following concentrations: 1 nM, 3 nM, 10 nM, 30 nM, 100 nM, 300 nM, 1000 nM, 3000 nM, and 10 000 nM; IC50 values and curve fits were then obtained.

A further test has as its target T2, PIM1 (h) (Homo sapiens, UniProt P11309).
T2 construct: purchased Eurofins (KinaseProfiler)
The test can be described thus: radiometric kinase assay (KinaseProfiler, Eurofins), PIM1. The note with it: in vitro radiometric kinase assay, tested at 1 nM to 10 000 nM, no pre-incubation; read-out: inhibitory activities (IC50 values) PIM1. Here is the method: as §1, §2, §3
PIM1 (h) was incubated with 8 mM MOPS pH 7.0, 0.2 mM EDTA, 100 µM KKRNRTLTV (SEQ ID NO. 4), 10 mM magnesium acetate and γ-^33P-ATP (specific activity and concentration as required). The reaction was initiated by the addition of the Mg/ATP mix. After incubation for 40 minutes at room temperature, the reaction was stopped by the addition of phosphoric acid to a concentration of 0.5%. An aliquot of the reaction was then spotted onto a filter and washed four times for 4 minutes in 0.425% phosphoric acid and once in methanol prior to drying and scintillation counting.
as §4

The target in another test is T3, TAF1L(h) (Homo sapiens, UniProt Q8IZX4).
T3 construct: purchased Eurofins (KinaseProfiler)
T3 sequence (Q8IZX4 whole entry): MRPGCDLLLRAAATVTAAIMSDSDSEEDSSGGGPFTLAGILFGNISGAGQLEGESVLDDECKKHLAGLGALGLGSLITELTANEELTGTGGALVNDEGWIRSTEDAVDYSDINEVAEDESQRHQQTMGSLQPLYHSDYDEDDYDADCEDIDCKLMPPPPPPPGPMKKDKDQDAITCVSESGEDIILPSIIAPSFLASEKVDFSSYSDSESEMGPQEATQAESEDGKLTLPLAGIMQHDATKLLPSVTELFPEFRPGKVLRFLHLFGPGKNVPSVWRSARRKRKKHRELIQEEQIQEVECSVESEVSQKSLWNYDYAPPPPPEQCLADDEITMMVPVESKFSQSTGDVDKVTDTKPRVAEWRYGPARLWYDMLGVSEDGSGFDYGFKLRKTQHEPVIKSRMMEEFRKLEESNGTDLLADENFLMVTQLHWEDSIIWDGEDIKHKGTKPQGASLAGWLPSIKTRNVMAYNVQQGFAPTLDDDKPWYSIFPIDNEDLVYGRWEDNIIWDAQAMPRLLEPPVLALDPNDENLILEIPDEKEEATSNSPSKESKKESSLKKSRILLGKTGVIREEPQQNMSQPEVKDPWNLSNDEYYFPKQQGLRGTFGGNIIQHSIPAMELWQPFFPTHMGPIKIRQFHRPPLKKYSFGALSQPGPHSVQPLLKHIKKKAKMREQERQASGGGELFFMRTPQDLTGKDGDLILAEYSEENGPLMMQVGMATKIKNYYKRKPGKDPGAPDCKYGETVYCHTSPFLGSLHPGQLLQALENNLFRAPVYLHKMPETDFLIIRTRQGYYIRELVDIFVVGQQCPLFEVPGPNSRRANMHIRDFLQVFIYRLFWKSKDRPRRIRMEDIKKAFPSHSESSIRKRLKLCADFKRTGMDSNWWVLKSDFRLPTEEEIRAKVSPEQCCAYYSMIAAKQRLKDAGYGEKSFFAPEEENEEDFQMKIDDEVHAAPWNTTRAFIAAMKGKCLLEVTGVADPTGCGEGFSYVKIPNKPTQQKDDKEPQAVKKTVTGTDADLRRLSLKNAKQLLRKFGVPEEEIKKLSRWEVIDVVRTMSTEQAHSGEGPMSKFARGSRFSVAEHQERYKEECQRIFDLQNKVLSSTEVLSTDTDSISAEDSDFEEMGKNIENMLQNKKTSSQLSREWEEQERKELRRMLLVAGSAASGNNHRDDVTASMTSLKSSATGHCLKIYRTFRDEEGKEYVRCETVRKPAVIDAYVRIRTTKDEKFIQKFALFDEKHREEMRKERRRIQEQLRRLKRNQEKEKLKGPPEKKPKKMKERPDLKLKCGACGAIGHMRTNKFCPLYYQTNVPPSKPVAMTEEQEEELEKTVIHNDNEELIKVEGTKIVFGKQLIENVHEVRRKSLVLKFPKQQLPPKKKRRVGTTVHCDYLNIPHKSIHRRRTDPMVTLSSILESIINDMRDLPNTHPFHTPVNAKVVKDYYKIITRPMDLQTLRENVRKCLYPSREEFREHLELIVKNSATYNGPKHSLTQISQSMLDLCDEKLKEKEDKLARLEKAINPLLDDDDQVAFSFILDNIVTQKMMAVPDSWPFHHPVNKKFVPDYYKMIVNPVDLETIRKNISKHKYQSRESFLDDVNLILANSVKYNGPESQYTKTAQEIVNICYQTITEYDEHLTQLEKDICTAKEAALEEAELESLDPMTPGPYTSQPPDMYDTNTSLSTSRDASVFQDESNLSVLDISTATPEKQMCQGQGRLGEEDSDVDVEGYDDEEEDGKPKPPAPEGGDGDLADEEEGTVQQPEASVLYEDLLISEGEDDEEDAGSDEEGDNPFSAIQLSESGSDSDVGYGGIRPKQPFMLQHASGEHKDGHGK
The test is described as follows: radiometric kinase assay (KinaseProfiler, Eurofins), TAF1L. The note with it: in vitro radiometric kinase assay, tested at 1 nM to 10 000 nM, no pre-incubation; read-out: inhibitory activities (IC50 values) TAF1L. Here is the method: as §1, §2, §3
TAF1L(h) was incubated with 20 mM Tris/HCl pH 8.5, 0.2 mM EDTA, 250 µM RRRFRPASPLRGPPK (SEQ ID NO. 1), 10 mM magnesium acetate and γ-^33P-ATP (specific activity and concentration as required). The reaction was initiated by the addition of the Mg/ATP mix. After incubation for 120 minutes at room temperature, the reaction was stopped by the addition of phosphoric acid to a concentration of 0.5%. An aliquot of the stopped reaction was spotted onto a filter and washed four times for 4 minutes in 0.425% phosphoric acid and once in methanol prior to drying and scintillation counting.
as §4

A further test concerns the target T4, TRB2(h) (Homo sapiens, UniProt Q92519).
T4 construct: purchased Eurofins (KinaseProfiler)
T4 sequence (Q92519 1-343): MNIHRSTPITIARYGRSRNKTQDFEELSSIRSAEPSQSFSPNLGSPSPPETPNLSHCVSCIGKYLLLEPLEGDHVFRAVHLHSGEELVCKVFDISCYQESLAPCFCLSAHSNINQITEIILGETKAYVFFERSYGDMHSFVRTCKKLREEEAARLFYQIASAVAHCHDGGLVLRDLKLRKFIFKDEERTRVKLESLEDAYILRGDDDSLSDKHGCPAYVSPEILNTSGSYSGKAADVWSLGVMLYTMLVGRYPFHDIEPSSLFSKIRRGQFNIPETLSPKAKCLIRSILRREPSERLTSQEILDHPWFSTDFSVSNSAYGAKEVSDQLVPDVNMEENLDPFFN
The test is described as follows: radiometric kinase assay (KinaseProfiler, Eurofins), TRB2. The note with it: in vitro radiometric kinase assay, tested at 1 nM to 10 000 nM, no pre-incubation; read-out: inhibitory activities (IC50 values) TRB2. The procedure: as §1, §2, §3
TRB2(h) was incubated with 8 mM MOPS pH 7.0, 0.2 mM EDTA, 250 µM RRRFRPASPLRGPPK (SEQ ID NO. 1), 10 mM magnesium acetate and γ-^33P-ATP (specific activity and concentration as required). The reaction was initiated by the addition of the Mg/ATP mix. After incubation for 120 minutes at room temperature, the reaction was stopped by the addition of phosphoric acid to a concentration of 0.5%. An aliquot of the stopped reaction was spotted onto a filter and washed four times for 4 minutes in 0.425% phosphoric acid and once in methanol prior to drying and scintillation counting.
as §4

T2 sequence (P11309 whole entry): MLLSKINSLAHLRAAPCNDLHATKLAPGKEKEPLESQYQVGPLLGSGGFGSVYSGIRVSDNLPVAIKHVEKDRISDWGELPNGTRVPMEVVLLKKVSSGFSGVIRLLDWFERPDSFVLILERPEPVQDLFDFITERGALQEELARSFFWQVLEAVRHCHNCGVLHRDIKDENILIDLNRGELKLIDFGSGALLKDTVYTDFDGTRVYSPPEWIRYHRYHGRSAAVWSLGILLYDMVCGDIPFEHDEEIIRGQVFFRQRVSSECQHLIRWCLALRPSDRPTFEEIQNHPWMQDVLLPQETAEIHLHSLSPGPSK
T1 sequence (P49760 whole entry): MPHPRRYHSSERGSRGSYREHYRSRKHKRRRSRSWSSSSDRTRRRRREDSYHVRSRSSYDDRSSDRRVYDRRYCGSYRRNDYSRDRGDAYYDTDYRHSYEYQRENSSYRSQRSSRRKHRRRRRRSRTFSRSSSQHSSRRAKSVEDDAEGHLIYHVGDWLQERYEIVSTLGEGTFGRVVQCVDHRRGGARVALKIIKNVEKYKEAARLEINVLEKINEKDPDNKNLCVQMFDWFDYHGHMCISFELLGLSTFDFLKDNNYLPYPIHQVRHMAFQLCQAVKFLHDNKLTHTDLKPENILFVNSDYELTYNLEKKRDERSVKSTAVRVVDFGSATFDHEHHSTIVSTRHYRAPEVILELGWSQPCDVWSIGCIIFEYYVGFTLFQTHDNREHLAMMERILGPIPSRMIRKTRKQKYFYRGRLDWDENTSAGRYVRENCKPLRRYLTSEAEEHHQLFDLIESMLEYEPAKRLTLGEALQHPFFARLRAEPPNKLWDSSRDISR

As usually defined, the IC50 is the point on the concentration scale where inhibition reaches its midpoint. Regarding `Cc1nn(C)c(C)c1-c1ccc2scc(-c3ccncc3)c2n1` [Preparative Example 85, 3-(pyridin-4-yl)-5-(1,3,5-trimethyl-1H-pyrazol-4-yl)thieno[3,2-b]pyridine], the concentration for half-maximal inhibition (IC50) at CLK2 (h) is 3000 to 10000 nM; on PIM1 (h), 3000 to 10000 nM; on TAF1L(h), 500 to 3000 nM; at TRB2(h), 500 to 3000 nM.
For `Cn1ccc(-c2ccc3scc(-c4ccncc4)c3n2)n1` [Preparative Example 86, 5-(1-methyl-1H-pyrazol-3-yl)-3-(pyridin-4-yl)thieno[3,2-b]pyridine], the IC50 lay within 3000 to 10000 nM on CLK2 (h), 3000 to 10000 nM on PIM1 (h), 500 to 3000 nM on TAF1L(h) and 3000 to 10000 nM at TRB2(h).
Consider `Cn1nccc1-c1ccc2scc(-c3ccncc3)c2n1` [Preparative Example 90, 5-(1-methyl-1H-pyrazol-5-yl)-3-(pyridin-4-yl)thieno[3,2-b]pyridine], for which the IC50 lay in the range of 3000 to 10000 nM on CLK2 (h), 3000 to 10000 nM at PIM1 (h), 500 to 3000 nM on TAF1L(h) and 500 to 3000 nM at TRB2(h).
With `Cn1cncc1-c1ccc2scc(-c3ccncc3)c2n1` [Preparative Example 91, 5-(1-methyl-1H-imidazol-5-yl)-3-(pyridin-4-yl)thieno[3,2-b]pyridine], the IC50 at CLK2 (h) was 500 to 3000 nM; on PIM1 (h) it was 100 to 499 nM; on TAF1L(h), 100 to 499 nM; on TRB2(h), 500 to 3000 nM.
Consider `Cn1cc(-c2ccc3scc(-c4ccncc4)c3n2)nn1` [Preparative Example 93, 5-(1-methyl-1H-1,2,3-triazol-4-yl)-3-(pyridin-4-yl)thieno[3,2-b]pyridine], for which the IC50 was in the range of 3000 to 10000 nM on CLK2 (h), 500 to 3000 nM on PIM1 (h), 500 to 3000 nM at TAF1L(h) and 500 to 3000 nM on TRB2(h).
With `Cn1ncc(-c2ccc3scc(-c4ccncc4)c3n2)n1` [Preparative Example 94, 5-(2-methyl-2H-1,2,3-triazol-4-yl)-3-(pyridin-4-yl)thieno[3,2-b]pyridine], the IC50 is 3000 to 10000 nM on CLK2 (h), 3000 to 10000 nM at PIM1 (h), 500 to 3000 nM on TAF1L(h) and 500 to 3000 nM at TRB2(h).
Regarding `Cn1ccc(Nc2ccc3scc(-c4ccncc4)c3n2)n1` [Preparative Example 99, N-(1-methyl-1H-pyrazol-3-yl)-3-(pyridin-4-yl)thieno[3,2-b]pyridin-5-amine], the concentration for half-maximal inhibition (IC50) fell in the range of 500 to 3000 nM at CLK2 (h), 500 to 3000 nM at PIM1 (h), 500 to 3000 nM on TAF1L(h) and 100 to 499 nM at TRB2(h).
As for `c1cc(-c2csc3ccc(Nc4cc[nH]n4)nc23)ccn1` [Preparative Example 101, N-(1H-pyrazol-3-yl)-3-(pyridin-4-yl)thieno[3,2-b]pyridin-5-amine], the IC50 on CLK2 (h) was in the range of 100 to 499 nM; at PIM1 (h), 500 to 3000 nM; on TAF1L(h) it was 20 to 99 nM; on TRB2(h), 20 to 99 nM.
For the compound `Fc1cc(-c2ccc3scc(-c4ccccc4)c3n2)cc(F)c1F` [Preparative Example 122, 3-phenyl-5-(3,4,5-trifluorophenyl)thieno[3,2-b]pyridine], the concentration for half-maximal inhibition (IC50) at CLK2 (h), at PIM1 (h), at TAF1L(h) and on TRB2(h) was 3000 to 10000 nM each time.
As to `c1ccc(-c2csc3ccc(-c4ccoc4)nc23)cc1` [Preparative Example 123, 5-(furan-3-yl)-3-phenylthieno[3,2-b]pyridine], the IC50 at CLK2 (h), on PIM1 (h), on TAF1L(h) and at TRB2(h) was 3000 to 10000 nM each time.
Turning to `c1ccc(-c2csc3ccc(-c4cnoc4)nc23)cc1` [Preparative Example 124, 4-(3-phenylthieno[3,2-b]pyridin-5-yl)isoxazole], the IC50 at CLK2 (h), at PIM1 (h), at TAF1L(h) and on TRB2(h) was 3000 to 10000 nM throughout.
In the case of `Cn1cc(-c2csc3ccc(Oc4ccccc4)nc23)cn1` [Preparative Example 139, 3-(1-methyl-1H-pyrazol-4-yl)-5-phenoxythieno[3,2-b]pyridine], the IC50 on CLK2 (h), at PIM1 (h), at TAF1L(h) and on TRB2(h) was 500 to 3000 nM in each case.
In the case of `Cc1sc2ccc(-c3cnn(C)c3)nc2c1-c1ccncc1` [Preparative Example 142, 2-methyl-5-(1-methyl-1H-pyrazol-4-yl)-3-(pyridin-4-yl)thieno[3,2-b]pyridine], the IC50 at CLK2 (h) fell in the range of 3000 to 10000 nM; at PIM1 (h), 3000 to 10000 nM; on TAF1L(h) it was 500 to 3000 nM; on TRB2(h), 500 to 3000 nM.
For `Cc1cc2scc(-c3ccncc3)c2nc1-c1cnn(C)c1` [Preparative Example 150, 6-methyl-5-(1-methyl-1H-pyrazol-4-yl)-3-(pyridin-4-yl)thieno[3,2-b]pyridine], the IC50 at CLK2 (h) is 3000 to 10000 nM; on PIM1 (h), 500 to 3000 nM; at TAF1L(h), 500 to 3000 nM; at TRB2(h), 500 to 3000 nM.
Regarding `Cc1cc2scc(-c3ccncc3)c2nc1-c1ccn(C)n1` [Preparative Example 151, 6-methyl-5-(1-methyl-1H-pyrazol-3-yl)-3-(pyridin-4-yl)thieno[3,2-b]pyridine], the IC50 on CLK2 (h), on PIM1 (h), on TAF1L(h) and on TRB2(h) was 3000 to 10000 nM each time.
Take `Cc1cc(-c2cnn(C)c2)nc2c(-c3ccncc3)csc12` [Preparative Example 157, 7-methyl-5-(1-methyl-1H-pyrazol-4-yl)-3-(pyridin-4-yl)thieno[3,2-b]pyridine]: the IC50 on CLK2 (h) fell in the range of 3000 to 10000 nM; on PIM1 (h), 3000 to 10000 nM; at TAF1L(h), 3000 to 10000 nM; on TRB2(h) it was 500 to 3000 nM.
On to `Cn1cc(-c2cc(Cl)c3scc(-c4ccncc4)c3n2)cn1` [Preparative Example 162, 7-chloro-5-(1-methyl-1H-pyrazol-4-yl)-3-(pyridin-4-yl)thieno[3,2-b]pyridine], for which the IC50 is 500 to 3000 nM at CLK2 (h), 500 to 3000 nM on PIM1 (h), 100 to 499 nM at TAF1L(h) and 100 to 499 nM on TRB2(h).
For the compound `Cn1ccc(-c2cc(Cl)c3scc(-c4ccncc4)c3n2)n1` [Preparative Example 163, 7-chloro-5-(1-methyl-1H-pyrazol-3-yl)-3-(pyridin-4-yl)thieno[3,2-b]pyridine], the IC50 at CLK2 (h) was 3000 to 10000 nM; on PIM1 (h), 3000 to 10000 nM; at TAF1L(h), 500 to 3000 nM; on TRB2(h) it was 500 to 3000 nM.
